Article PMC8548882, “The Trp-rich Antimicrobial Amphiphiles With Intramolecular Aromatic Interactions for the Treatment of Bacterial Infection” (Frontiers in Microbiology, 2021)
Ends that are not written are not given here.

Assays:
S.aureus 25923 = format: cell-based, Staphylococcus aureus ATCC 25923; settings: 25923
From the text: (§1) The tested strains were kindly provided by the laboratory of Veterinary Microbiology and Immunology, the College of Veterinary Medicine, Northeast Agricultural University (gram-negative bacteria, Salmonella enterica serovar typhimurium C77-31, Salmonella typhimurium ATCC 14028, Escherichia coli ATCC 25922, Pseudomonas aeruginosa ATCC 27853 and gram-positive bacteria, Staphylococcus aureus ATCC 29213, Staphylococcus aureus ATCC 43300, Staphylococcus epidermidis ATCC 12228, Staphylococcus aureus ATCC 25923).
(§2) The famous microtiter dilution, National Committee for Clinical Laboratory Standards, was adopted to measure the antimicrobial ability of the engineering peptides ([Chou et al., 2016]). In brief, the 50μl with serial dilution was incubated with the same volume bacteria (1×10^5CFU/ml in midi-logarithmic phase) in a 96-well plate 18–24h at 37°C. The positive control was the bacteria treated with culture medium and the negative control was merely culture medium. The MICs (minimum inhibitory concentrations) were defined as the lowest concentration of peptides that prevented the production of visible turbidity ([Tossi et al., 2000]).

S.epidermidis 12228 = format: cell-based, Staphylococcus epidermidis ATCC 12228
From the text: as §1

P. aeruginosa ATCC 27853 = experiment: Transmission electron microscope; format: cell-based, Pseudomonas aeruginosa ATCC 27853; settings: MIC (1μM)
From the text: (§3) The sample for the test of the Transmission Electron Microscope (TEM) was to follow the same procedure as SEM. After the overnight pre-fixation with 2.5% glutaraldehyde, the bacteria was then post-fixed with 2% osmium tetroxide (sealed ampule, Shanghai, China). Afterward, the samples were dehydrated with ethanol at a series of concentrations (50, 70, 90, and 100%) and substituted the 100% ethanol with 50% ethanol+50% acetone, 100% acetone, 50% acetone+50% epoxy resin, and 100% epoxy resin successively. Finally, the samples were sectioned and stained for observation.

S. aureus ATCC 29213 = experiment: Transmission electron microscope; format: cell-based, Staphylococcus aureus ATCC 29213; settings: MIC (2μM)
From the text: as §3

P. aeruginosa 27853 = format: cell-based, Pseudomonas aeruginosa ATCC 27853
Experimental: The famous microtiter dilution, National Committee for Clinical Laboratory Standards, was adopted to measure the antimicrobial ability of the engineering peptides ([Chou et al., 2016]). In brief, the 50μl with serial dilution was incubated with the same volume bacteria (1×10^5CFU/ml in midi-logarithmic phase) in a 96-well plate 18–24h at 37°C. The positive control was the bacteria treated with culture medium and the negative control was merely culture medium. […] The antimicrobial performance of peptides against P. aeruginosa 27853 cells was further studied under the complicated physiological conditions ([Lyu et al., 2016]). […] The serum was also taken into the consideration for the adverse impact on the antimicrobial effect of peptides.

MRSA 43300 = format: cell-based, Staphylococcus aureus ATCC 43300; settings: microtiter dilution, 1×10^5CFU/ml, 18–24h at 37°C, visible turbidity
From the text: as §1, §2

[1] = test system: human red blood cells (hRBCs); experiment: Hemolytic activity; format: cell-based; settings: hRBC; ratio of MHC to GM
From the text: The hemolytic activity of peptides was reflected by the releasing amount of hemoglobin from erythrocytes lysis induced by peptides ([Dong et al., 2014a]). The informed consent was obtained from the volunteers (3 healthy 25-year-old male volunteers) before the experiment. In brief, the human red blood cells (hRBCs), donated by volunteer, were collected, washed, and resuspended in PBS at pH 7.2. The peptides were serially diluted in PBS at different concentrations in a 96-well cell cultures plate and incubated with 50μl hRBCs for 1h at 37°C. The 0.1% Trition X-100 was selected as the treatment of positive control and the negative control was the hRBCs treated with PBS. After 1h incubation, the supernatant, obtained by centrifuging the plate 1,000g for 5min, was transferred to a brand-new plate for absorbance detection at 570nm. The releasing amount of hemoglobin was converted to the percent hemolysis against to 0.1% Triton X-100 treatment. The lowest concentration caused 5% hemolysis of hRBCs and was defined as the lowest hemolytic concentration of antimicrobial peptide.

[2] = test system: Pseudomonas aeruginosa ATCC 27853; experiment: Subcutaneous abscess model
Experimental: The in vivo antimicrobial performance of peptides was assessed by the treatment effect of the subcutaneous bacterial abscess model ([Pletzer et al., 2017]). In brief, 24 female ICR mice (weighted 18–20g, WeiTonglihua Co., Ltd. (Beijing)) were divided into four groups and each group contained 6 mice (n=6). […] Then, the Pseudomonas aeruginosa ATCC 27853 cells (100μl, 10^8CFU/ml) were injected into the subcutaneous layer of the dorsum skin. […] The non-infected mice served as a control, which was infected and treated with saline.
The therapeutic effect of peptides was further evaluated by colony counting, and the appearance and the level of inflammatory cytokine ([Tan et al., 2020]). The appearance of abscesses was taking photos and the area of dermonecrotic tissue was measured and calculated with calipers at Day 3. The infected skin on the back of the mouse was harvested entirely and homogenized with saline at Day 3. The homogenate of abscess was spread on the MHA plates and cultivated for 18–24h at 37°C. Then the bacterial colony was counted for data analysis. The serum was collected for proinflammatory cytokines (TNF-α, IL-1α, IL-1β, and IL-2) tests at Day 3. The cytokine levels were determined by commercial ELISA kits (Nanjing Jiancheng Bioengineering Institute, Nanjing, China).
The histopathology of abscesses lesions was further analyzed by hematoxylin/eosin (HE) staining (Aladdin, Shanghai, China). The tissue samples at Day 3 were excised and fixed in 4% paraformaldehyde solution. In addition, the cell nuclei were stained blue and the cytoplasm was stained pink.

[3] = test system: P. aeruginosa ATCC 27853 cells; experiment: Cytoplasmic membrane depolarization, diSC3-5; format: cell-based, Pseudomonas aeruginosa ATCC 27853; settings: 1/2 MIC, 0s to 1,020s
Experimental: The cytoplasmic membrane depolarization of peptides was analyzed with membrane potential-sensitive dye DISC3-5 ([Ma et al., 2011]). First, 0.4μM DISC3-5 (Sigma-Aldrich, Shanghai, China) was incubated with the P. aeruginosa ATCC 27853 cells (OD600=0.05) suspended in 5mM HEPES buffer supplied with 20mM glucose for 1h. Then 100mMK^+ was introduced into the mixture for the reason of keeping K^+ concentration equilibration of bacterial cytoplasmic and extracellular conditions. Afterward, the peptides were reacted with the bacterial cells and the fluorescence value was tracked over time to plot the fluorescence curve (excitation λ=622nm, emission λ=670nm).

Substance: VKKWVKKWVKKWVKKW-NH2 [VW5]
- MIC (S.aureus 25923): 2 µM
- MIC (S.epidermidis 12228): 2 µM
- ultrastructure (TEM) (P. aeruginosa ATCC 27853): cellular contents of bacterial cells leaked
- ultrastructure (TEM) (S. aureus ATCC 29213): diffused around the shrunken cells
- change of MIC compared to the control (P. aeruginosa 27853; 12.5% serum): did not change
- increase of MIC compared to the control (P. aeruginosa 27853; 50% serum): fourfold
- MIC (MRSA 43300): 2 µM
- Therapeutic index (TI) [1]: > 76.19
- bacterial load in the abscess lesion ([2]; 5mg/kg intraperitoneally twice a day, Day 3, n=6): 12.72±2.26 ×10^9CFU/abscess
- IL-1β in serum ([2]; 5mg/kg, Day 3, ELISA, saline 95.99±4.31): 72.36 ± 4.15 pg/mL
- IL-1α in serum ([2]; 5mg/kg, Day 3, ELISA, saline 99.95±4.71): 79.82 ± 4.79 pg/mL
- TNF-α in serum ([2]; 5mg/kg, Day 3, ELISA, saline 1020.654±51.08): 756.62 ± 39.12 pg/mL
- IL-2 in serum ([2]; 5mg/kg, Day 3, ELISA, saline 1492.65±48.11): 1296.25 ± 150.86 pg/mL
- histological examination of abscess lesion, dermal tissue structures ([2]; 5mg/kg, HE staining, Day 3): relative integrity
- cytoplasmic membrane depolarization, diSC3-5 fluorescence over time [3]: dose-dependent effect
